# Calls of active or inactive are those of the source. No cut-off for these calls is given here.
# Experiments:
# [1] = molecular target: T1, Fatty-acid amide hydrolase 1 (Rattus norvegicus) (UniProt P97612); test: Inhibition of rat brain FAAH using [3H]anandamide as substrate at 10 uM preincubated for 15 mins before substrate addition relative to control
# T1 sequence (whole entry): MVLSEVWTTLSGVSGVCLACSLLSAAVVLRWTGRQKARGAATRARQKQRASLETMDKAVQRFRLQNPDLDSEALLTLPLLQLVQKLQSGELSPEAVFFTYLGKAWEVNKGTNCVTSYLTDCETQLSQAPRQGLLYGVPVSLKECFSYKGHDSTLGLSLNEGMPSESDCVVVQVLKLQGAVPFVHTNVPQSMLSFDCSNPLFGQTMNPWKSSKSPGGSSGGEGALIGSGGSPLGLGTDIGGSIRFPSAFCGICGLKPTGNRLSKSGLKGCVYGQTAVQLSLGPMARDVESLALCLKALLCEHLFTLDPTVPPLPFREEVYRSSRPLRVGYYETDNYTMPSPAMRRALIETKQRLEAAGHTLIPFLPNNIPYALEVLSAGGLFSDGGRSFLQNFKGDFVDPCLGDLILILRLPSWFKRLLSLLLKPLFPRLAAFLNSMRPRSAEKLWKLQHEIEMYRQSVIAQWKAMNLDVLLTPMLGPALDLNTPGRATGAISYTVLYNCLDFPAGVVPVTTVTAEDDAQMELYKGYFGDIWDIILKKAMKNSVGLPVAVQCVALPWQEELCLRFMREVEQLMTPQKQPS
# [2] = molecular target: Cannabinoid receptor 1 (Homo sapiens) (UniProt P21554); test: Displacement of [3H]SR141716A from human CB1 receptor expressed in rat Chem-1 cell membrane at 10 uM relative to control; type: cell membranes
# Chain of Cannabinoid receptor 1 (Homo sapiens) (P21554 whole entry): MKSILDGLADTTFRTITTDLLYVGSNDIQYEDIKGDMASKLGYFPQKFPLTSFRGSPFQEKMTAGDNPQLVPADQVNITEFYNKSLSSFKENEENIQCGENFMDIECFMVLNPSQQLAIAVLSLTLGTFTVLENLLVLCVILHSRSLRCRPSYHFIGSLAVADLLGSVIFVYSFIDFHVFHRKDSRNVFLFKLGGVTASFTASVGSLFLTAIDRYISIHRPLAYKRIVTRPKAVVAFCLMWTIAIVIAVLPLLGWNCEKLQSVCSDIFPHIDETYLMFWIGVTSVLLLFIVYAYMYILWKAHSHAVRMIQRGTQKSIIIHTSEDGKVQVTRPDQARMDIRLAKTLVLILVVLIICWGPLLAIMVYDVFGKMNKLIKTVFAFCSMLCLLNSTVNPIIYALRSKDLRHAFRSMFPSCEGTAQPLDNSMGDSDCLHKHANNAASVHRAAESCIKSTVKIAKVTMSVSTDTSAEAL
# [3] = molecular target: Cannabinoid receptor 2 (Homo sapiens) (UniProt P34972); test: Displacement of [3H]WIN-55,212-2 from human recombinant CB2 receptor expressed in CHO-K1 cells at 10 uM relative to control; type: cell-based
# Chain of Cannabinoid receptor 2 (Homo sapiens) (P34972 whole entry): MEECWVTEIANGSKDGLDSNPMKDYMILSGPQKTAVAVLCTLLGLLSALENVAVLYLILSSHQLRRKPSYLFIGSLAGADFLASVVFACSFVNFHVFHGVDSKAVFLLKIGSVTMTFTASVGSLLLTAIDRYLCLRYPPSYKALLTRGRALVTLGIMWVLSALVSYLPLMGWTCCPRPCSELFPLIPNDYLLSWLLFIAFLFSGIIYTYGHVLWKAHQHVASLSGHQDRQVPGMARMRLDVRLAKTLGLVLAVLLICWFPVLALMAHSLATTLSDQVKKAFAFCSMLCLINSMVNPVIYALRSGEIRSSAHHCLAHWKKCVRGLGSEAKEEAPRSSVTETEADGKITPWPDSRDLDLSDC
# Mus musculus [4] = test: Antiobesity activity in Sabra mouse assessed as change in body weight at 1 mg/kg, ip administered on day 8, 9, 10, 11, 14, 18, 24 and 32 measured on day 4 relative to control; type: functional; conditions: route intraperitoneal
# Hypothalamus [5] = test: Effect on NPY gene expression in Sabra mouse hypothalamus assessed as change in mRNA level at 1 mg/kg, ip administered on day 8, 9, 10, 11, 14, 18, 24 and 32 by RT-PCR analysis relative to GAPDH; type: functional; conditions: route intraperitoneal
# [6] = molecular target: Transient receptor potential cation channel subfamily V member 1 (Rattus norvegicus) (UniProt O35433); test: Displacement of [3H]resiniferatoxin from TRPV1 receptor in Wistar rat spinal cord at 10 uM relative to control
# Chain of Transient receptor potential cation channel subfamily V member 1 (Rattus norvegicus) (O35433 whole entry): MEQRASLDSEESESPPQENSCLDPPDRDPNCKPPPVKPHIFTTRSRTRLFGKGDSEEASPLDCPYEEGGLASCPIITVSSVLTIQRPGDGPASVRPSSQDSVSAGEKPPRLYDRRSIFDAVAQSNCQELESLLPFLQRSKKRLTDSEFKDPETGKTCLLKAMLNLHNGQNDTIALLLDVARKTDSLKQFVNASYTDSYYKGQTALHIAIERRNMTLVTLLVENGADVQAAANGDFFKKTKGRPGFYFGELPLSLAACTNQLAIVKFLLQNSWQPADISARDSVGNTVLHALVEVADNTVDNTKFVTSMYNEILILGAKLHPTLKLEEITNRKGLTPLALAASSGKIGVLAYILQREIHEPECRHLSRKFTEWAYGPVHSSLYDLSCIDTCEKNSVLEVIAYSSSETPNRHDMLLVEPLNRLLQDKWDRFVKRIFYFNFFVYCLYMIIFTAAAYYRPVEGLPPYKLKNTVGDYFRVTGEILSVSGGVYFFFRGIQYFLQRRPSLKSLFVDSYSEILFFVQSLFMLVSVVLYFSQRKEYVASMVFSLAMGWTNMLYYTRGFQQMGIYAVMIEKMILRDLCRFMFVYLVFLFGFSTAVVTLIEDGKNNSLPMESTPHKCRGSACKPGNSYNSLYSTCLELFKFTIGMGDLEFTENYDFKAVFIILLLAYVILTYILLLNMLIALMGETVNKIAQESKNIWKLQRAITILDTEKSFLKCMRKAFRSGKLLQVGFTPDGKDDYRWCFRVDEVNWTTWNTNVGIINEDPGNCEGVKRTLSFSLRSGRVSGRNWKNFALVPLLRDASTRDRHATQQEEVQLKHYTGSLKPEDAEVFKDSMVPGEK
# Mus musculus [7] = test: Antiobesity activity in Sabra mouse assessed as change in body weight at 1 mg/kg, ip administered on day 8, 9, 10, 11, 14, 18, 24 and 32 measured on day 39 relative to control; type: functional; conditions: route intraperitoneal
# Hypothalamus [8] = test: Effect on POMC gene expression in Sabra mouse hypothalamus assessed as change in mRNA level at 1 mg/kg, ip administered on day 8, 9, 10, 11, 14, 18, 24 and 32 by RT-PCR analysis relative to GAPDH; type: functional; conditions: route intraperitoneal
# Mus musculus [9] = test: Antiobesity activity in Sabra mouse assessed as change in food consumption at 1 mg/kg, ip administered on day 8, 9, 10, 11, 14, 18, 24 and 32 measured after 3 weeks relative to control; type: functional; conditions: route intraperitoneal
# Mus musculus [10] = test: Antiobesity activity in Sabra mouse assessed as change in food consumption at 1 mg/kg, ip administered on day 8, 9, 10, 11, 14, 18, 24 and 32 measured after 6 weeks relative to control; type: functional; conditions: route intraperitoneal
# Mus musculus [11] = test: Antiobesity activity in Sabra mouse assessed as change in food consumption at 1 mg/kg, ip administered on day 8, 9, 10, 11, 14, 18, 24 and 32 measured after 2 weeks relative to control; type: functional; conditions: route intraperitoneal
# Mus musculus [12] = test: Antiobesity activity in Sabra mouse assessed as change in food consumption at 1 mg/kg, ip administered on day 8, 9, 10, 11, 14, 18, 24 and 32 measured after 5 weeks relative to control; type: functional; conditions: route intraperitoneal
# Mus musculus [13] = test: Antiobesity activity in Sabra mouse assessed as change in body weight at 1 mg/kg, ip administered on day 8, 9, 10, 11, 14, 18, 24 and 32 measured on day 9 relative to control; type: functional; conditions: route intraperitoneal
# Mus musculus [14] = test: Antiobesity activity in Sabra mouse assessed as change in body weight at 1 mg/kg, ip administered on day 8, 9, 10, 11, 14, 18, 24 and 32 measured on day 30 relative to control; type: functional; conditions: route intraperitoneal
# Mus musculus [15] = test: Antiobesity activity in Sabra mouse assessed as change in body weight at 1 mg/kg, ip administered on day 8, 9, 10, 11, 14, 18, 24 and 32 measured on day 21 relative to control; type: functional; conditions: route intraperitoneal
# Hypothalamus [16] = test: Effect on CART gene expression in Sabra mouse hypothalamus assessed as change in mRNA level at 1 mg/kg, ip administered on day 8, 9, 10, 11, 14, 18, 24 and 32 by RT-PCR analysis relative to GAPDH; type: functional; conditions: route intraperitoneal
# [17] = molecular target: T2, Peroxisome proliferator-activated receptor alpha (Homo sapiens) (UniProt Q07869); test: Binding affinity to human recombinant PPARalpha expressed in Escherichia coli at 10 uM for 16 hrs by spectrofluorimetric analysis relative to control
# T2 sequence (whole entry): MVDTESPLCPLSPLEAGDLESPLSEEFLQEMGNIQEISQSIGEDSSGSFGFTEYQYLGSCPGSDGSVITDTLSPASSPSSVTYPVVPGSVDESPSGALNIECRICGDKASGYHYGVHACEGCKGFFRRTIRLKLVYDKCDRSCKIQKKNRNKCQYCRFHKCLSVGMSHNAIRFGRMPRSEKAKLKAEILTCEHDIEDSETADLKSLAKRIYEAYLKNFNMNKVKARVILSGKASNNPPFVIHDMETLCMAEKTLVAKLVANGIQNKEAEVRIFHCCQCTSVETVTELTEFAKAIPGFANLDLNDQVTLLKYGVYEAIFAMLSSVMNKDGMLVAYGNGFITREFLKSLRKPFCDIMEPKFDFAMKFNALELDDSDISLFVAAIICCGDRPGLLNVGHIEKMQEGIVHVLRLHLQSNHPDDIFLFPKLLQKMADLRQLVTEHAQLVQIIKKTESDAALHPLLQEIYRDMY
# Hypothalamus [18] = test: Effect on FAAH gene expression in Sabra mouse hypothalamus assessed as change in mRNA level at 1 mg/kg, ip administered on day 8, 9, 10, 11, 14, 18, 24 and 32 by RT-PCR analysis relative to GAPDH; type: functional; conditions: route intraperitoneal
# Hypothalamus [19] = test: Effect on 5HT1A gene expression in Sabra mouse hypothalamus assessed as change in mRNA level at 1 mg/kg, ip administered on day 8, 9, 10, 11, 14, 18, 24 and 32 by RT-PCR analysis relative to GAPDH; type: functional; conditions: route intraperitoneal
# Mus musculus [20] = test: Antiobesity activity in Sabra mouse assessed as change in body weight at 1 mg/kg, ip administered on day 8, 9, 10, 11, 14, 18, 24 and 32 measured on day 35 relative to control; type: functional; conditions: route intraperitoneal
# Mus musculus [21] = test: Antiobesity activity in Sabra mouse assessed as change in body weight at 1 mg/kg, ip administered on day 8, 9, 10, 11, 14, 18, 24 and 32 measured on day 25 relative to control; type: functional; conditions: route intraperitoneal
# Hypothalamus [22] = test: Effect on CAMKK2 gene expression in Sabra mouse hypothalamus assessed as change in mRNA level at 1 mg/kg, ip administered on day 8, 9, 10, 11, 14, 18, 24 and 32 by RT-PCR analysis relative to GAPDH; type: functional; conditions: route intraperitoneal
# Mus musculus [23] = test: Antiobesity activity in Sabra mouse assessed as change in food consumption at 1 mg/kg, ip administered on day 8, 9, 10, 11, 14, 18, 24 and 32 measured after 4 weeks relative to control; type: functional; conditions: route intraperitoneal
# Mus musculus [24] = test: Increase in motor activity Sabra mouse at 1 mg/kg, ip administered on day 8, 9, 10, 11, 14, 18, 24 and 32 measured on day 14 by open field test; type: functional, organism-based; design: dose 1 mg/kg
# Mus musculus [25] = test: Antiobesity activity in Sabra mouse assessed as change in body weight at 1 mg/kg, ip administered on day 8, 9, 10, 11, 14, 18, 24 and 32 measured on day 14 relative to control; type: functional; conditions: route intraperitoneal
# [26] = molecular target: Transient receptor potential cation channel subfamily V member 1 (Mus musculus) (UniProt Q704Y3); test: Displacement of [3H]resiniferatoxin from TRPV1 in mouse cortical slices
# Chain of Transient receptor potential cation channel subfamily V member 1 (Mus musculus) (Q704Y3 whole entry): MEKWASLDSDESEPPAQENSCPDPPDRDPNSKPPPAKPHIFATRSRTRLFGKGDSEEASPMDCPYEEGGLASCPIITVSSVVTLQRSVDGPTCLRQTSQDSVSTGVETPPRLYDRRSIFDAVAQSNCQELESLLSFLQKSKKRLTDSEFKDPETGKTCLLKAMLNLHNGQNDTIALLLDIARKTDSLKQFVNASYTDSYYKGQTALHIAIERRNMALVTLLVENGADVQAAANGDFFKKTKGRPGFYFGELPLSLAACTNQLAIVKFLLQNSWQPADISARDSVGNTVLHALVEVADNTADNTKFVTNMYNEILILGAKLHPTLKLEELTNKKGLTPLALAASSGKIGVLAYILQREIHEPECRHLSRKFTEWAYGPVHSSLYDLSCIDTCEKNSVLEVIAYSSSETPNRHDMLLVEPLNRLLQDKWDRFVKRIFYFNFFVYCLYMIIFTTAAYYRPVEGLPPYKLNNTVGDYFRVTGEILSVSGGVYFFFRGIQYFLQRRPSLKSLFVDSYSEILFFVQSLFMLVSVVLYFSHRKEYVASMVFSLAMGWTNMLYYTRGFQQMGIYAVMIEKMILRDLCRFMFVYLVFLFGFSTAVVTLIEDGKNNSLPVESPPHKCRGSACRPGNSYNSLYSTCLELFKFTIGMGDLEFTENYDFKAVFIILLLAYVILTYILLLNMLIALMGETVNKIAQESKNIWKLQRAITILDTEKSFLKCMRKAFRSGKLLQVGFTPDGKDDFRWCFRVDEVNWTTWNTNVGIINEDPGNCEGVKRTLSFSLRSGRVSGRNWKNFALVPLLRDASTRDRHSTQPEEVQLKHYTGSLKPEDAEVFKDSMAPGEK
# [27] = molecular target: Transient receptor potential cation channel subfamily V member 1 (Rattus norvegicus) (UniProt O35433); test: Activation of TRPV1 in rat blood vessels; type: tissue-based; conditions: Blood vessel
# [28] = molecular target: Transient receptor potential cation channel subfamily V member 1 (Homo sapiens, UniProt Q8NER1); test: Activation of TRPV1 in HEK293 cells; type: cell-based
# Chain of Transient receptor potential cation channel subfamily V member 1 (Q8NER1 whole entry): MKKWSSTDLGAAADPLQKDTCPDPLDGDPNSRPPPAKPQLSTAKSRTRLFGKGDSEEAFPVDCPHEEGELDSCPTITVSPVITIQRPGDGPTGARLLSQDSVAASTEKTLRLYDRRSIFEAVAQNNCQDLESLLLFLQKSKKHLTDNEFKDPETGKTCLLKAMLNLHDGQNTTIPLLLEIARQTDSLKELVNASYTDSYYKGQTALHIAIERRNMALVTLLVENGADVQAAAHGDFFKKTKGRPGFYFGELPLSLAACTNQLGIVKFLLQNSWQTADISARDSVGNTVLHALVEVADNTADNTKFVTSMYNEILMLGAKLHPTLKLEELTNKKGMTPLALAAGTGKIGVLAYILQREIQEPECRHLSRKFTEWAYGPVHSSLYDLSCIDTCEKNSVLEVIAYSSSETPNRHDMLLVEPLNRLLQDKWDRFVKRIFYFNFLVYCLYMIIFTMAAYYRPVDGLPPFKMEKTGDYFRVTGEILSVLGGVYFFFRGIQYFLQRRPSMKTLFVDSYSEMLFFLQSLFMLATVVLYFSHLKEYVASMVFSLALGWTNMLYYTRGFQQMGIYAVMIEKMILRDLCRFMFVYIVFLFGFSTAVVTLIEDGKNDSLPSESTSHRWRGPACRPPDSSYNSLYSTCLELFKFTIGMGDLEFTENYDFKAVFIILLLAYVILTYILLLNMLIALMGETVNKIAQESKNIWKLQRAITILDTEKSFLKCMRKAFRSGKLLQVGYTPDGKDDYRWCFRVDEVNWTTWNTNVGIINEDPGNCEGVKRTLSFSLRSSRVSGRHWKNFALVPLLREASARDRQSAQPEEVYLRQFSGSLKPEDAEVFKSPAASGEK
# Mus musculus [29] = test: Antiobesity activity in Sabra mouse assessed as reduction in body weight at 1 mg/kg, ip administered on day 0, 10, 11, 12, 24, 29 measured on day 19 relative to control; type: functional; design: scale not given: the % may be the effect or the level left; conditions: route intraperitoneal
# Mus musculus [30] = test: Antiobesity activity in Sabra mouse assessed as reduction in body weight at 1 mg/kg, ip administered on day 0, 10, 11, 12, 24, 29 measured on day 24 relative to control; type: functional; design: scale not given: the % may be the effect or the level left; conditions: route intraperitoneal
# Mus musculus [31] = test: Antiobesity activity in Sabra mouse assessed as reduction in body weight at 1 mg/kg, ip administered on day 0, 10, 11, 12, 24, 29 measured on day 12 relative to control; type: functional; design: scale not given: the % may be the effect or the level left; conditions: route intraperitoneal
# Mus musculus [32] = test: Antiobesity activity in Sabra mouse assessed as reduction in body weight at 1 mg/kg, ip administered on day 0, 10, 11, 12, 24, 29 measured on day 39 relative to control; type: functional; design: scale not given: the % may be the effect or the level left; conditions: route intraperitoneal
# Mus musculus [33] = test: Antiobesity activity in Sabra mouse assessed as reduction in body weight at 1 mg/kg, ip administered on day 0, 10, 11, 12, 24, 29 measured on day 29 relative to control; type: functional; design: scale not given: the % may be the effect or the level left; conditions: route intraperitoneal
# Mus musculus [34] = test: Antiobesity activity in Sabra mouse assessed as reduction in body weight at 1 mg/kg, ip administered on day 0, 10, 11, 12, 24, 29 measured on day 26 relative to control; type: functional; design: scale not given: the % may be the effect or the level left; conditions: route intraperitoneal
# Mus musculus [35] = test: Antiobesity activity in Sabra mouse assessed as reduction in body weight at 1 mg/kg, ip administered on day 0, 10, 11, 12, 24, 29 measured on day 36 relative to control; type: functional; design: scale not given: the % may be the effect or the level left; conditions: route intraperitoneal
# Mus musculus [36] = test: Antiobesity activity in Sabra mouse assessed as reduction in body weight at 1 mg/kg, ip administered on day 0, 10, 11, 12, 24, 29 measured on day 33 relative to control; type: functional; design: scale not given: the % may be the effect or the level left; conditions: route intraperitoneal
# Mus musculus [37] = test: Antiobesity activity in Sabra mouse assessed as reduction in body weight at 1 mg/kg, ip administered on day 0, 10, 11, 12, 24, 29 measured on day 22 relative to control; type: functional; design: scale not given: the % may be the effect or the level left; conditions: route intraperitoneal
smiles,measurement,setting,value
CCCCCCCCCCCCCCCCCC(=O)N[C@H](CO)C(C)C,inhibition,[1],0%
same,inhibition,[2],6%
same,inhibition,[3],6%
same,Activity,Mus musculus [4],2.1%
same,Activity,Hypothalamus [5],-39%
same,inhibition,[6],-9%
same,Activity,Mus musculus [7],-6%
same,Activity,Hypothalamus [8],43%
same,Activity,Mus musculus [9],93.8%
same,Activity,Mus musculus [10],82.5%
same,Activity,Mus musculus [11],96%
same,Activity,Mus musculus [12],100.5%
same,Activity,Mus musculus [13],0.9%
same,Activity,Mus musculus [14],-5.8%
same,Activity,Mus musculus [15],-1.8%
same,Activity,Hypothalamus [16],2%
same,Activity,[17],0%
same,Activity,Hypothalamus [18],-26%
same,Activity,Hypothalamus [19],-16%
same,Activity,Mus musculus [20],-7.8%
same,Activity,Mus musculus [21],-5.3%
same,Activity,Hypothalamus [22],-14%
same,Activity,Mus musculus [23],85.7%
same,Activity,Mus musculus [24],inactive
same,Activity,Mus musculus [25],-1.4%
CCCCCCCCCCCCCCCCCC(=O)NCCO,Activity,[26],inactive
CCCCCCCCCCCCCCCC(=O)NCCO,Activity,[27],inactive
same,Activity,[28],inactive
CCCCCCCC/C=C\CCCCCCCC(=O)N[C@@H](C)CO,Activity,Mus musculus [29],-2.24%
same,Activity,Mus musculus [30],-1.57%
same,Activity,Mus musculus [31],-1.8%
same,Activity,Mus musculus [32],-3.58%
same,Activity,Mus musculus [33],-3.66%
same,Activity,Mus musculus [34],-0.5%
same,Activity,Mus musculus [35],-2.56%
same,Activity,Mus musculus [36],-1.63%
same,Activity,Mus musculus [37],-2.24%

# From ChEMBL document CHEMBL2321853, “Novel acylethanolamide derivatives that modulate body weight through enhancement of hypothalamic pro-opiomelanocortin (POMC) and/or decreased neuropeptide Y (NPY)” (J Med Chem, 2013)
